Laboratory results as given in ChEMBL document CHEMBL4699449, “Adenosine A Receptor Antagonists for Cancer Immunotherapy” (J Med Chem, 2020).
Values belong to the compound of their own block, whether it stands above or below them.

Experiments:
[1] = target: T1, Adenosine receptor A2a (Mus musculus, UniProt Q60613); assay: Antagonist activity at adenosine 2A receptor in BALB/c mouse T cells assessed as reduction in CGS-21680-induced suppression of IFN-gamma secretion incubated for 24 hrs by ELISA; assay type: cell-based, T cell
T1 sequence (Q60613 whole entry): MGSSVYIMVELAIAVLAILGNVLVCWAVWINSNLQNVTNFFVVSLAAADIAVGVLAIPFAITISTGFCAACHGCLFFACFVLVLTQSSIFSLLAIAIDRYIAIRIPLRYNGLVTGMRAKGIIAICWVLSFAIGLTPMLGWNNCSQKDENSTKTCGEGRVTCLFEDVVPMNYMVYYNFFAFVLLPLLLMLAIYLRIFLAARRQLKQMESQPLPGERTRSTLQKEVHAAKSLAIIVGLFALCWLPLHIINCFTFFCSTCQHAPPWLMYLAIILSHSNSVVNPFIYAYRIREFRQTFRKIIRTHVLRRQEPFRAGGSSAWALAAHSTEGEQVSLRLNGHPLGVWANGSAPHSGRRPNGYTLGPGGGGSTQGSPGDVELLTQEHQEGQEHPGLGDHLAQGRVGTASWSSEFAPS

[2] = target: T1, Adenosine receptor A2a; assay: Antagonist activity at adenosine 2A receptor in BALB/c mouse T cells assessed as reduction in CGS-21680-induced suppression of IL-2 secretion incubated for 24 hrs by ELISA; assay type: cell-based, T cell
[3] = Half life in mouse at 2 mg/kg, iv or 10 mg/kg, po measured up to 24 hrs by LC-MS/MS analysis; assay type: ADME, organism-based; settings: in vivo
[4] = target: T2, Adenosine receptor A2a (Homo sapiens, UniProt P29274); assay: Antagonist activity at human adenosine 2A receptor expressed in HEK293 cells assessed as reduction in NECA-induced cAMP level incubated for 15 mins by HTRF assay; assay type: functional, cell-based
T2 sequence (P29274 whole entry): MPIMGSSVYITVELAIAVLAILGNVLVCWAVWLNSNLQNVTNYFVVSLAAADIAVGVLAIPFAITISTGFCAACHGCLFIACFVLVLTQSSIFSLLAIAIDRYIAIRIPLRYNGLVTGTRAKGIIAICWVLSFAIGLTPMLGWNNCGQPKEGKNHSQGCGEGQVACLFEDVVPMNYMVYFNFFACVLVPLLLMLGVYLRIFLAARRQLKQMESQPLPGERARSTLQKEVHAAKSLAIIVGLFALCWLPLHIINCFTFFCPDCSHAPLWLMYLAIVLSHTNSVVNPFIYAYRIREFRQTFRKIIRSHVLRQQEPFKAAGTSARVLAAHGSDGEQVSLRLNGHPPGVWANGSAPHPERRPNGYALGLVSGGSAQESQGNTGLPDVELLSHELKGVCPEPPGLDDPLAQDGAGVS

[5] = Cmax in mouse at 1 mg/kg, iv measured up to 24 hrs by LC-MS/MS analysis; assay type: ADME, organism-based; design: route intravenous, dose 1 mg/kg, time <=24; settings: in vivo
[6] = target: T2, Adenosine receptor A2a; assay: Antagonist activity at human adenosine 2A receptor expressed in HEK293 cells assessed as reduction in cAMP production preincubated for 10 mins followed by adenosine addition and measured after 30 mins by EU-cAMP tracer based TR-FRET assay; assay type: functional, cell-based
[7] = target: T2, Adenosine receptor A2a; assay: Antagonist activity at adenosine 2A receptor in human peripheral blood lymphocytes assessed as reduction in NECA-stimulated CREB phosphorylation by flow cytometric analysis; assay type: functional, cell-based, PBL
[8] = target: T2, Adenosine receptor A2a; assay: Antagonist activity at human adenosine 2A receptor expressed in HEK293 cells assessed as reduction in cAMP production preincubated for 10 mins followed by 3 nM A2A agonist NECA addition and measured after 30 mins by EU-cAMP tracer based TR-FRET assay; assay type: functional, cell-based
[9] = target: T2, Adenosine receptor A2a; assay: Antagonist activity at human adenosine 2A receptor expressed in HEK293 cells assessed as reduction in cAMP production preincubated for 10 mins followed by 5 nM A2A agonist NECA addition and measured after 30 mins by EU-cAMP tracer based TR-FRET assay; assay type: functional, cell-based
[10] = target: T2, Adenosine receptor A2a; assay: Antagonist activity at human adenosine 2A receptor expressed in T-REx-CHO cells preincubated for 1 hr followed by NECA stimulation and measured after 30 mins by Eu-cAMP tracer based TR-FRET assay; assay type: functional, cell-based; settings: filed as antagonist, time 1.5 hrs
[11] = target: T3, Adenosine receptor A2b (Homo sapiens) (UniProt P29275); assay: Antagonist activity at human adenosine 2B receptor expressed in CHO-K1 cells preincubated for 1 hr followed by NECA stimulation and measured after 30 mins by Eu-cAMP tracer based TR-FRET assay; assay type: functional, cell-based; settings: filed as antagonist, time 1.5 hrs
T3 sequence (whole entry): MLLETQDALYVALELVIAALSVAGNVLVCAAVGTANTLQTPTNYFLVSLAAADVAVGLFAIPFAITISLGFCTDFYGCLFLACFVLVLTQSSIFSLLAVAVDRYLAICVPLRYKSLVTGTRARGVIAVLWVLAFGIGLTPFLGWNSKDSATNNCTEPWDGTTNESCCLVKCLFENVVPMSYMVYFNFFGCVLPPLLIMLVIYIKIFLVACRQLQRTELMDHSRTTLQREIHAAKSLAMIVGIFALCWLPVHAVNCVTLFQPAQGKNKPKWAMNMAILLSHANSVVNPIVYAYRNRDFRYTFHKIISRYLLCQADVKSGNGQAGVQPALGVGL

[12] = Cmax in human at 75 to 200 mg; assay type: ADME; design: dose 75-200
[13] = Half life in human at 75 to 200 mg; assay type: ADME; settings: dose 75-200 mg
[14] = Tmax in human at 75 to 200 mg administered as multiple ascending dose; assay type: ADME; settings: in vivo, dose 75-200 mg
[15] = Tmax in human at 75 to 200 mg administered as single ascending dose; assay type: ADME; settings: in vivo, dose 75-200 mg
[16] = target: T4, Adenosine receptor A1 (Homo sapiens, UniProt P30542); assay: Antagonist activity at human adenosine A1 receptor expressed in CHO cells by radioligand competition binding assay; assay type: cell-based
T4 sequence (P30542 whole entry): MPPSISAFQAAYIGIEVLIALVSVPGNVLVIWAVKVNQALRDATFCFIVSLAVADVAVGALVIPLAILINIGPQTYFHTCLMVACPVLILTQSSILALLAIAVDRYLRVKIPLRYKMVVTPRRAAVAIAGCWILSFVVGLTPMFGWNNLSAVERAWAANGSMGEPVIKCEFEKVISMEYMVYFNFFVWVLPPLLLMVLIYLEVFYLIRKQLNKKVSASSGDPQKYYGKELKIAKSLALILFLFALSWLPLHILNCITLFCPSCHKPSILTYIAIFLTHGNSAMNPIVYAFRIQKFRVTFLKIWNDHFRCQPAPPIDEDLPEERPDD

[17] = target: T5, Adenosine receptor A2b (Homo sapiens, UniProt P29275); assay: Antagonist activity at human adenosine A2b receptor expressed in HEK293 cells by radioligand competition binding assay; assay type: cell-based
T5 sequence (P29275 whole entry): T3 sequence (whole entry)

[18] = target: T6, Adenosine receptor A3 (Homo sapiens, UniProt P0DMS8); assay: Antagonist activity at human adenosine A3 receptor expressed in HeLa cells by radioligand competition binding assay; assay type: cell-based
T6 sequence (P0DMS8 whole entry): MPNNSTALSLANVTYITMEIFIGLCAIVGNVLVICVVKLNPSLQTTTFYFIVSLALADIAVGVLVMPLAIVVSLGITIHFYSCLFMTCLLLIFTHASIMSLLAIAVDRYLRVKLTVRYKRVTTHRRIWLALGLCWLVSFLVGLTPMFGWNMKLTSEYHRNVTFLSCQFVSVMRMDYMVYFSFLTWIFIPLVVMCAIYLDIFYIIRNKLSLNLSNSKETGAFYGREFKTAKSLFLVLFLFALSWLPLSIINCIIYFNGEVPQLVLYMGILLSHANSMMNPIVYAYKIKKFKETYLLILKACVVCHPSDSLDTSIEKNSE

[19] = target: T2, Adenosine receptor A2a; assay: Antagonist activity at adenosine 2A receptor in human blood assessed as reversal of NECA/LPS-stimulated TNF-alpha release incubated for 5 hrs; assay type: tissue-based
[20] = species: Homo sapiens; assay: Selectivity ratio of Ki for human adenosine A1 receptor to Ki for human Adenosine 2A receptor
[21] = target: T2, Adenosine receptor A2a; assay: Antagonist activity at adenosine 2A receptor in human whole blood assessed as reduction in phosphorylated CREB level preincubated for 20 mins followed by adenosine receptor agonist NECA addition and measured after 30 mins by flow cytometric analysis; assay type: functional, tissue-based
[22] = species: Homo sapiens; assay: Selectivity ratio of Ki for human adenosine A3 receptor to Ki for human Adenosine 2A receptor
[23] = target: T5, Adenosine receptor A2b; assay: Inhibition of FRET-labelled CA200645 binding to human adenosine 2B receptor expressed in CHO cells incubated for 2 hr by TR-FRET assay; assay type: cell-based
[24] = target: T2, Adenosine receptor A2a; assay: Inhibition of FRET-labelled CA200645 binding to human adenosine 2A receptor expressed in CHO cells incubated for 2 hr by TR-FRET assay; assay type: cell-based
[25] = species: Homo sapiens; assay: Selectivity ratio of Ki for human adenosine 2B receptor expressed in HEK293 cells to Ki for human adenosine 2A receptor expressed in HEK293 cells; assay type: cell-based
[26] = species: Homo sapiens; assay: Selectivity ratio of IC50 for human adenosine A1 receptor expressed in CHO cells to IC50 for human adenosine 2A receptor expressed in HEK293 cells; assay type: cell-based
[27] = species: Homo sapiens; assay: Selectivity ratio of IC50 for human adenosine 2B receptor expressed in HEK293 cells to IC50 for human adenosine 2A receptor expressed in HEK293 cells; assay type: cell-based
[28] = species: Homo sapiens; assay: Selectivity ratio of IC50 for human adenosine A3 receptor expressed in CHO cells to IC50 for human adenosine 2A receptor expressed in HEK293 cells; assay type: cell-based
[29] = target: T4, Adenosine receptor A1; assay: Inhibition of FRET-labelled CA200645 binding to human adenosine A1 receptor expressed in CHO cells incubated for 2 hr by TR-FRET assay; assay type: cell-based
[30] = target: T6, Adenosine receptor A3; assay: Inhibition of FRET-labelled CA200645 binding to human adenosine A3 receptor expressed in CHO cells incubated for 2 hr by TR-FRET assay; assay type: cell-based
[31] = target: T2, Adenosine receptor A2a; assay: Antagonist activity at adenosine 2A receptor in human PBMC assessed as reversal of NECA/CD3/CD28-stimulated IL-2 release incubated for 24 hrs
[32] = target: Adenosine receptor A2a (Rattus norvegicus) (UniProt P30543); assay: Antagonist activity at adenosine 2A receptor in rat PC12 cells assessed as reduction in NECA-induced cAMP level incubated for 30 mins by TR-FRET assay; assay type: functional, cell-based; settings: PC-12, filed as antagonist
Adenosine receptor A2a (Rattus norvegicus), sequence (P30543 whole entry): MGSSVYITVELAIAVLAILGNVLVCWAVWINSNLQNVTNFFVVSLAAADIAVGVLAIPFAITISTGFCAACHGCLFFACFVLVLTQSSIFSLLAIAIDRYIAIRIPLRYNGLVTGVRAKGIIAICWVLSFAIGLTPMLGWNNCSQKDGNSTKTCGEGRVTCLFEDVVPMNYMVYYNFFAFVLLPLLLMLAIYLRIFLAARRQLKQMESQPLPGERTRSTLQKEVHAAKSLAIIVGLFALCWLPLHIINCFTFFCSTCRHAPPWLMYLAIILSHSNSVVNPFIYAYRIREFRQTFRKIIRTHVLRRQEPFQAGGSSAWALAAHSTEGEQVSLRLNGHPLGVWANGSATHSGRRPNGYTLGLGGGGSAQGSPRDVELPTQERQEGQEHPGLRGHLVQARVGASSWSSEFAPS

Compound: COc1ccc(-c2ccccc2)c2ncc(NC(=O)N3CCC(C)(O)CC3)nc12
- half-life [3]: > 120 min
- IC50 [4]: < 100 nM

Compound: NC(=O)Cc1cc(N2CCN(CCn3c(=O)sc4c3nc(N)n3nc(-c5ccco5)nc43)CC2)c(F)cc1F
- IC50 [6]: 49 nM
- IC50 [7]: 20 nM
- IC50 [8]: 0.5 nM
- IC50 [9]: 2 nM

Compound: COc1ccc(N2CCOCC2)c2sc(NC(=O)N3CCC(C)(O)CC3)nc12 [TOZADENANT]
- half-life [3]: 11 min
- Cmax [5]: 337 ng/mL

Compound: COc1ccc(C2CCOCC2)c2ncc(NC(=O)N3CCC(C)(O)CC3)nc12
- half-life [3]: 55.2 min

Compound: COc1cccc2c(-c3cn(Cc4cccc(C(C)(O)C(F)(F)F)[n+]4[O-])nn3)nc(N)nc12 (centres undefined)
- Kb [10]: < 100 nM
- Kb [11]: < 100 nM

Compound: COc1ncc(N2CCOCC2)c2nc(NC(=O)c3cnn(C)c3)[nH]c12
- half-life [3]: 103 min
- Cmax [5]: 733 ng/mL

Compound: COc1ncc(N2CCOCC2)c2nc(NC(=O)N3CCC(C)(O)CC3)[nH]c12
- half-life [3]: 50.3 min
- Cmax [5]: 2650 ng/mL

Compound: Cc1c(C#N)cccc1-c1cc(-c2cn(Cc3cccc(C(C)(C)O)n3)nn2)nc(N)n1 [ETRUMADENANT]
- Cmax [12]: 1170 ng/mL
- half-life [13]: 1200 min
- Tmax [14]: 90 min
- Tmax [15]: 120 min

Compound: Nc1nc(-n2cccn2)nc(-n2cccn2)c1Br [PBF-509]
- Ki [16]: 2500 nM
- Ki [17]: 1000 nM
- Ki [18]: 5000 nM

Compound: COCCn1cc(C(=O)Nc2nc3c(OC)ccc(N4CCOCC4)c3s2)cn1
- half-life [3]: 19.9 min

Compound: COc1ccc(N2CCOCC2)c2nc(NC(=O)c3cccc(N4CCOCC4)c3)[nH]c12
- Ratio IC50 [26]: 1000
- Ratio IC50 [27]: 1000
- half-life [3]: 69 min
- Cmax [5]: 2100 ng/mL
- IC50 [4]: < 10 nM
- Ratio IC50 [28]: 1000

Compound: COc1cccc2c(-c3cn(Cc4cccc(C(C)(C)O)n4)nn3)nc(N)nc12
- Kb [10]: < 100 nM
- Kb [11]: < 100 nM

Compound: COc1ccc(-c2cnn(C)c2)c2nc(NC(=O)N3CCC(C)(O)CC3)[nH]c12
- half-life [3]: 52 min
- Cmax [5]: 1320 ng/mL

Compound: COc1ncc(N2CCOCC2)c2sc(NC(=O)N3CCC(C)(O)CC3)nc12
- half-life [3]: 10.3 min
- Cmax [5]: 449 ng/mL

Compound: COc1ccc(-c2cnn(C)c2)c2nc(NC(=O)N3CC[C@@]4(CCCOC4)C3)[nH]c12
- half-life [3]: 66.6 min
- Cmax [5]: 1440 ng/mL

Second part, led by results:

- IC50 [1]: 40 nM
- IC50 [2]: 40 nM
Compound: COc1ccc(-c2cnn(C)c2)c2nc(NC(=O)c3ccc(Cn4ccnc4)cc3)[nH]c12

- half-life [3]: 49 min
- Cmax [5]: 1390 ng/mL
- IC50 [4]: < 10 nM
Compound: COCCn1cc(C(=O)Nc2nc3c(OC)ncc(N4CCOCC4)c3s2)cn1

- half-life [3]: 20.3 min
- Cmax [5]: 1220 ng/mL
Compound: COCCn1cc(C(=O)Nc2cnc3c(C4CCOCC4)ccc(OC)c3n2)cn1

- IC50 [19]: > 200 nM
- Ratio Ki [20]: 230
- IC50 [21]: 17 nM
- Ratio Ki [22]: 2490
- Ki [23]: 5.4 nM
- Ki [24]: 0.078 nM
Compound: COc1nc(-c2ncco2)nc(N)c1C(=O)NCc1c(Cl)cccc1Cl

- Kb [10]: < 100 nM
Compound: COCc1cccc(Cn2cc(-c3cc(-c4ccco4)nc(N)n3)nn2)n1

- Ratio Ki [20]: 1000
- Ratio Ki [22]: 1000
Compound: COCCOc1ccc(N2CCN(CCn3ncc4c3nc(N)n3nc(-c5ccco5)nc43)CC2)cc1
- Ratio Ki [25]: 1000

- Ki [29]: 260 nM
- IC50 [19]: > 200 nM
- Ki [30]: 62 nM
- Ki [24]: 1.3 nM
Compound: Cc1cccnc1CNC(=O)c1c(N)nc(-c2ccco2)nc1OCCF

- IC50 [19]: > 200 nM
- IC50 [31]: 77 nM
Compound: Cc1cccnc1CNC(=O)c1cnc(-c2ccco2)nc1N

- IC50 [4]: < 100 nM
Compound: COc1ncc(-c2ccccc2)c2ncc(NC(=O)N3CCC(C)(O)CC3)nc12

- Kb [32]: < 10000 nM
Compound: Nc1nc(-c2ccccc2)c(-c2ccc(O)c(Cl)c2)n2ccnc12

- IC50 [19]: > 200 nM
- IC50 [31]: 77 nM
Compound: Cc1cccnc1CNC(=O)c1c(N)nc(-c2ccco2)nc1OC[C@H](C)O
